Laboratory results from ChEMBL document CHEMBL1201862, “PubChem BioAssay data set” (2004).
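Protocol summary: plate cells (96-well), add compound at 5 concentrations, incubate 48 h, interpolate endpoints linearly. GI50 = concentration required for 50% inhibition of growth.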 The source made the active and inactive calls. No stated cut-off is given here; in the data, active = GI50 up to about 1.1 µM and inactive = higher. Where a SMILES comes first, the peptide text is derived from it. The star is where a group is joined. Cbz = O=C(OCc1ccccc1)*; Boc = CC(C)(C)OC(=O)*; Bn = c1ccc(C*)cc1

Columns and labels:
Test in all cases: NCI anticancer screen, dose series, 48 h
TK-10 = system: TK-10
SK-MEL-5 = system: SK-MEL-5
786-0 = system: 786-0
EKVX = system: EKVX
NCI-H460 = system: NCI-H460
M14 = system: M14
A549 = system: A549
HCT-15 = system: HCT-15
K562 = system: K562
UACC-257 = system: UACC-257
SR = system: SR
OVCAR-8 = system: OVCAR-8
RXF 393 = system: RXF 393
NCI-H522 = system: NCI-H522
SNB-19 = system: SNB-19
T47D = system: T47D
COLO 205 = system: COLO 205
SK-OV-3 = system: SK-OV-3
HCC 2998 = system: HCC 2998

SMILES	GI50 (TK-10)	GI50 (SK-MEL-5)	GI50 (786-0)	GI50 (EKVX)	GI50 (NCI-H460)	GI50 (M14)	GI50 (A549)	GI50 (HCT-15) [µM]	GI50 (K562)	GI50 (UACC-257)	GI50 (SR)	GI50 (OVCAR-8)	GI50 (RXF 393)	GI50 (NCI-H522)	GI50 (SNB-19)	GI50 (T47D)	GI50 (COLO 205)	GI50 (SK-OV-3)	GI50 (HCC 2998)
CN1CCCCCC(=N\O)/C(=N/O)CCCCC1	> 100 µM (inactive)	> 100 µM (inactive)	> 100 µM (inactive)	> 100 µM (inactive)	> 100 µM (inactive)	> 100 µM (inactive)	> 100 µM (inactive)	> 100	> 100 µM (inactive)	> 100 µM (inactive)	> 100 µM (inactive)	> 100 µM (inactive)	> 100 µM (inactive)	> 100 µM (inactive)	> 100 µM (inactive)	–	–	–	–
Cc1cc2c(O)c(c1)CN(Cc1ccccc1)Cc1cc(C)cc(c1O)CN(Cc1ccccc1)Cc1cc(C)cc(c1O)CN(Cc1ccccc1)C2	> 100 µM (inactive)	> 100 µM (inactive)	> 100 µM (inactive)	–	> 100 µM (inactive)	> 100 µM (inactive)	> 100 µM (inactive)	> 100	> 100 µM (inactive)	> 100 µM (inactive)	–	> 100 µM (inactive)	75.2 µM (inactive)	> 100 µM (inactive)	> 100 µM (inactive)	> 100 µM (inactive)	> 100 µM (inactive)	> 100 µM (inactive)	> 100 µM (inactive)
O=c1[nH]/c(=C/c2cccs2)c(=O)[nH]/c1=C/c1ccc(OCc2ccccc2)cn1	1.74 µM (inactive)	0.0515 µM (active)	0.061 µM (active)	1 µM (active)	0.0351 µM (active)	0.0309 µM (active)	0.144 µM (active)	< 0.015	< 0.0156 µM (active)	0.116 µM (active)	< 0.0142 µM (active)	0.197 µM (active)	0.0506 µM (active)	0.0171 µM (active)	0.0661 µM (active)	–	0.323 µM (active)	0.0426 µM (active)	0.0562 µM (active)
O=c1c2cc([N+](=O)[O-])ccc2n2n1CCCCC2	61.8 µM (inactive)	> 100 µM (inactive)	> 100 µM (inactive)	> 100 µM (inactive)	> 100 µM (inactive)	> 100 µM (inactive)	> 100 µM (inactive)	> 100	> 100 µM (inactive)	> 100 µM (inactive)	> 100 µM (inactive)	> 100 µM (inactive)	> 100 µM (inactive)	> 100 µM (inactive)	> 100 µM (inactive)	–	> 100 µM (inactive)	> 100 µM (inactive)	> 100 µM (inactive)
N#Cc1c(-c2ccccc2)nc(-c2ccccc2)sc1=S	> 100 µM (inactive)	> 100 µM (inactive)	> 100 µM (inactive)	> 100 µM (inactive)	> 100 µM (inactive)	> 100 µM (inactive)	> 100 µM (inactive)	> 100	> 100 µM (inactive)	> 100 µM (inactive)	–	> 100 µM (inactive)	> 100 µM (inactive)	–	> 100 µM (inactive)	> 100 µM (inactive)	> 100 µM (inactive)	> 100 µM (inactive)	> 100 µM (inactive)
Clc1ccc(/N=C2\c3ccccc3CN2c2ccc(Cl)cc2)cc1	87.5 µM (inactive)	1.43 µM (inactive)	> 100 µM (inactive)	> 100 µM (inactive)	62.8 µM (inactive)	31.7 µM (inactive)	29.9 µM (inactive)	> 100	0.119 µM (active)	> 100 µM (inactive)	–	> 100 µM (inactive)	29.8 µM (inactive)	63.2 µM (inactive)	> 100 µM (inactive)	0.219 µM (active)	1.58 µM (inactive)	> 100 µM (inactive)	28.4 µM (inactive)
O=C(N/N=C(COc1ccc(Cl)cc1)\N=C\c1ccncc1)c1ccncc1	> 100 µM (inactive)	–	> 100 µM (inactive)	> 100 µM (inactive)	> 100 µM (inactive)	> 100 µM (inactive)	> 100 µM (inactive)	> 100	> 100 µM (inactive)	> 100 µM (inactive)	–	> 100 µM (inactive)	57.1 µM (inactive)	84.5 µM (inactive)	> 100 µM (inactive)	96.4 µM (inactive)	> 100 µM (inactive)	> 100 µM (inactive)	> 100 µM (inactive)
CN(C)c1ccc(-c2c(C#N)c(-c3ccccc3)n(NS(=O)(=O)c3ccccc3)c(=O)c2C#N)cc1	79.6 µM (inactive)	20.4 µM (inactive)	69.5 µM (inactive)	67.5 µM (inactive)	54.3 µM (inactive)	47.4 µM (inactive)	42.9 µM (inactive)	77.3	49.1 µM (inactive)	> 100 µM (inactive)	–	31.4 µM (inactive)	44 µM (inactive)	58.3 µM (inactive)	24.8 µM (inactive)	–	> 100 µM (inactive)	67.3 µM (inactive)	30.1 µM (inactive)
COc1cc(-c2oc3c(OC)c(O)c(OC)c(O)c3c(=O)c2OC)cc(O)c1OC	39.2 µM (inactive)	21.4 µM (inactive)	44.4 µM (inactive)	39.2 µM (inactive)	–	38.3 µM (inactive)	46.9 µM (inactive)	35.3	26.5 µM (inactive)	51.2 µM (inactive)	–	37.9 µM (inactive)	27.1 µM (inactive)	24.3 µM (inactive)	65.9 µM (inactive)	32.8 µM (inactive)	67.8 µM (inactive)	16.4 µM (inactive)	31.3 µM (inactive)
Clc1ccc(C(n2cc(Br)cn2)n2cc(Br)cn2)cc1	17.4 µM (inactive)	14 µM (inactive)	14.1 µM (inactive)	19.7 µM (inactive)	16.1 µM (inactive)	16.8 µM (inactive)	14.7 µM (inactive)	13.8	18 µM (inactive)	14.7 µM (inactive)	–	18.5 µM (inactive)	14.5 µM (inactive)	13.3 µM (inactive)	> 10 µM (inactive)	–	16.1 µM (inactive)	35.1 µM (inactive)	16.4 µM (inactive)
CC(=O)Oc1cc2c(n(C)c1=O)-c1ccccc1C2	51.8 µM (inactive)	85.3 µM (inactive)	> 100 µM (inactive)	–	43.8 µM (inactive)	93.3 µM (inactive)	63.7 µM (inactive)	28.1	> 100 µM (inactive)	> 100 µM (inactive)	–	32 µM (inactive)	> 100 µM (inactive)	15.9 µM (inactive)	> 100 µM (inactive)	> 100 µM (inactive)	39.4 µM (inactive)	> 100 µM (inactive)	85.9 µM (inactive)
CC1(C(=O)O)CCCC1C(=O)O (configuration not stated)	> 100 µM (inactive)	> 100 µM (inactive)	> 100 µM (inactive)	> 100 µM (inactive)	> 100 µM (inactive)	> 100 µM (inactive)	> 100 µM (inactive)	> 100	> 100 µM (inactive)	> 100 µM (inactive)	–	> 100 µM (inactive)	> 100 µM (inactive)	> 100 µM (inactive)	> 100 µM (inactive)	> 100 µM (inactive)	–	–	–
COc1cc(/C=C2\Cc3cc(OC)c(OC)cc3C2=O)cc(OC)c1	48 µM (inactive)	10.8 µM (inactive)	19.2 µM (inactive)	> 100 µM (inactive)	15.1 µM (inactive)	> 100 µM (inactive)	> 96.6 µM (inactive)	5.26	0.479 µM (active)	> 87.3 µM (inactive)	–	> 26 µM (inactive)	19.8 µM (inactive)	3.74 µM (inactive)	25.8 µM (inactive)	> 100 µM (inactive)	> 46.7 µM (inactive)	17 µM (inactive)	–
CN(C)NC(=O)NC12CC3CC(CC(C3)C1)C2	> 10 µM (inactive)	> 100 µM (inactive)	> 100 µM (inactive)	> 100 µM (inactive)	> 100 µM (inactive)	–	> 100 µM (inactive)	> 100	> 100 µM (inactive)	> 100 µM (inactive)	> 100 µM (inactive)	> 100 µM (inactive)	> 10 µM (inactive)	> 100 µM (inactive)	> 100 µM (inactive)	–	> 100 µM (inactive)	> 100 µM (inactive)	–
COc1cc2c(cc1OCCCN1CCOCC1)N=C[C@@H]1CCCN1C2=O	19.8 µM (inactive)	4.07 µM (inactive)	4.16 µM (inactive)	19.4 µM (inactive)	24.5 µM (inactive)	11 µM (inactive)	35.7 µM (inactive)	24.9	4.73 µM (inactive)	24.6 µM (inactive)	3.57 µM (inactive)	24.7 µM (inactive)	2.75 µM (inactive)	1.25 µM (inactive)	18.8 µM (inactive)	–	1.87 µM (inactive)	10.8 µM (inactive)	–
C=CCNC(NCC=C)=C(C(Cl)=C(Cl)Cl)[N+](=O)[O-]	–	–	34.9 µM (inactive)	67.3 µM (inactive)	> 100 µM (inactive)	31.9 µM (inactive)	> 100 µM (inactive)	16.8	16.7 µM (inactive)	> 100 µM (inactive)	–	16.6 µM (inactive)	–	–	> 100 µM (inactive)	30.5 µM (inactive)	19.7 µM (inactive)	> 100 µM (inactive)	> 100 µM (inactive)
CC(C)(C)OC(=O)NC(Cc1ccc(OCc2ccccc2)cc1)C(=O)NC(CCCCNC(=O)OCc1ccccc1)C(=O)O (configuration not stated) (Boc-Tyr(Bn)-Lys(Cbz)-OH; configuration not given here)	67.3 µM (inactive)	40.6 µM (inactive)	54.1 µM (inactive)	> 100 µM (inactive)	–	2.72 µM (inactive)	> 100 µM (inactive)	> 10	42.8 µM (inactive)	87.9 µM (inactive)	28.6 µM (inactive)	35.3 µM (inactive)	17.8 µM (inactive)	–	27.3 µM (inactive)	–	29.5 µM (inactive)	–	35.3 µM (inactive)
